One may read the IC50 as the concentration that inhibits the measured activity by half.

In series [1] the test system is U251 (brain). The series is described as follows: SRB cell growth inhibition assay, U251. Format: cell-based. The conditions noted are these: Homo sapiens, U-251, U251, 96 hours. The text has this:
(§1) Cancer cell lines to determine the effect of nucleoside compounds were obtained from the following sources: Human OVCAR-3 (ovary), MCF-7 (breast, hormone-dependent), MDA-MB-231 (breast), HeLa (cervix), PC3 (prostate), LNCap (prostate), HepG2 (liver), A549 (lung), NCI-H226 (lung), HT-29 (colon), HCT116 (colon), SK-MEL-28 (melanoma) and PANC-1 (pancreas) from the American Type Culture Collection (ATCC) (Manassas, Va.); U251 (brain) from Riken (Japan); MKN-45 (stomach) from DSMZ (Germany); UMRC2 (kidney) from the United States National Cancer Institute (Bethesda, Md.). […]
(§2) The growth inhibition assay of RX-3117 against 16 human tumor cell lines was performed using the Sulforhodamine B (“SRB”) method (Skehan et al., J. National Cancer Institute, 82: 1107-1112 (1990)). […] After 5 minutes agitation in 10 mM Tris solution, the absorbance of each well was measured at 530 nm using Benchmark Plus Microplate reader (Bio-Rad Laboratories, Hercules, Calif.).
(§3) To translate the OD530 values into the number of live cells in each well, the OD530 values were compared to those on standard OD530—versus—cell number curves generated for each cell line. The percent survival was calculated using the formula: % Survival=live cell number[test]/live cell number[control]×100
(§4) The IC50 values were calculated by non-linear regression analysis.

Series [2] deals with HCT116 (colon). Description: SRB cell growth inhibition assay, HCT116. Format: cell-based. Conditions: Homo sapiens, HCT-116, HCT116, 96 hours.
Excerpt: as §1, §2, §3, §4

Series [3] relates to PANC-1 (pancreas). Description: SRB cell growth inhibition assay, PANC-1. Format: cell-based. Conditions: Homo sapiens, PANC-1, 96 hours.
Excerpt: as §1, §2, §3, §4

The subject of series [4] is LnCap (prostate). Description: SRB cell growth inhibition assay, LnCap. Format: cell-based. The conditions noted are these: Homo sapiens, 96 hours.
Excerpt: as §1, §2, §3, §4

Series [5] has as its system HT-29 (colon). Description: SRB cell growth inhibition assay, HT-29. Format: cell-based. The conditions noted are these: Homo sapiens, HT-29, 96 hours.
Excerpt: as §1, §2, §3, §4

For series [6], the system named is OVCAR-3 (ovary). Description: SRB cell growth inhibition assay, OVCAR-3. Conditions: Homo sapiens, OVCAR-3, 96 hours. Format: cell-based.
Excerpt: as §1, §2, §3, §4

The test system of series [7] is SK-MEL-28 (melanoma). The series is described as follows: SRB cell growth inhibition assay, SK-MEL-28. Format: cell-based. Conditions: Homo sapiens, SK-MEL-28, 96 hours.
Excerpt: as §1, §2, §3, §4

Series [8] deals with A549 (lung). The series is described as follows: SRB cell growth inhibition assay, A549. It counts as cell-based. Conditions: Homo sapiens, A549, 96 hours.
Excerpt: as §1, §2, §3, §4

The subject of series [9] is HeLa (cervix). The series is described as follows: SRB cell growth inhibition assay, HeLa. It counts as cell-based. The conditions noted are these: Homo sapiens, 96 hours.
Excerpt: as §1, §2, §3, §4

Series [10] relates to NCI-H226 (lung). Description: SRB cell growth inhibition assay, NCI-H226. Format: cell-based. Conditions: Homo sapiens, NCI-H226, 96 hours.
Excerpt: as §1, §2, §3, §4

Series [11] relates to UMRC2 (kidney). The series is described as follows: SRB cell growth inhibition assay, UMRC2. It counts as cell-based. The conditions noted are these: Homo sapiens, UMRC2, 96 hours.
Excerpt: as §1, §2, §3, §4

The subject of series [12] is MKN-45 (stomach). Description: SRB cell growth inhibition assay, MKN-45. Format: cell-based. Conditions: Homo sapiens, MKN-45, 96 hours.
Excerpt: as §1, §2, §3, §4

Series [13] has as its system HCT116 human colon carcinoma xenografts. Description: Xenograft study in nude mice. It counts as in vivo. The conditions noted are these: intraperitoneal, three times per week day 5 to day 37; for tumor volume compared to the controls: after day 37. The protocol:
In order to observe the inhibition of growth of tumor in an animal model, an […] xenograft study of nude mice was conducted utilizing RX-3117. Suitable human cancer cell lines are those that have been tested already for inhibition of cancer cell growth, and particularly preferred was colon carcinoma HCT116. The antitumor efficacy of RX-3117 was evaluated against subcutaneously injected tumor xenografts in nude mice and tumor volume was measured after the treatment of RX-3117.
HCT116 cell suspension (2×10^6 cells in 0.1 ml of RPMI) was injected subcutaneously into the right flank of six-week-old male athymic mice (BALB/c nu/nu) on day 0. A sufficient number of mice were injected with HCT116 cell suspension so that tumors in a volume range as narrow as possible were selected for the trial on the day of treatment initiation. Animals with tumors in the proper size range were assigned to various treatment groups. RX-3117 was dissolved in 10% DMSO in PBS and solvent alone served as control. All study medications (control, RX-3117: 2 mg/kg/day, RX-3117: 10 mg/kg/day) were given by intraperitoneal injections three times per week starting from day 5 and ending on day 37. To quantify tumor growth, three perpendicular diameters of the tumors were measured with calipers every 3-5 days, and the body weight of the mice was monitored for toxicity. The tumor volume was calculated using the formula: tumor volume (mm^3)=(width)×(length)×(height)×π/6.

The test system of series [14] is PC3 (prostate). The series is described as follows: SRB cell growth inhibition assay, PC3. Format: cell-based. Conditions: Homo sapiens, PC3, 96 hours.
Excerpt: as §1, §2, §3, §4

Series [15] deals with MCF-7 (breast, hormone-dependent). The series is described as follows: SRB cell growth inhibition assay, MCF-7. Format: cell-based. Conditions: Homo sapiens, MCF7, MCF-7, 96 hours.
Excerpt: as §1, §2, §3, §4

Series [16] deals with MDA-MB-231 (breast). Description: SRB cell growth inhibition assay, MDA-MB-231. Conditions: Homo sapiens, MDA-MB-231, 96 hours. It counts as cell-based.
Excerpt: as §1, §2, §3, §4

Series [17] has as its system HepG2 (liver). Description: SRB cell growth inhibition assay, HepG2. It counts as cell-based. The conditions noted are these: Homo sapiens, HepG2, 96 hours.
Excerpt: as §1, §2, §3, §4

As for `Nc1ccn([C@@H]2C(F)=C(CO)[C@@H](O)[C@H]2O)c(=O)n1` [RX-3117, (1S,4R,5S)-4-Amino-1-(2-fluoro-4,5-dihydroxy-3-hydroxymethyl-cyclopent-2-enyl)-1H-pyrimidin-2-one], the IC50 in series [1] stood at 830 nM; in series [2], 190 nM; in series [3], 620 nM; in [4], 2670 nM; in series [5] it was 280 nM; in series [6], 800 nM. Besides, the IC50 worked out at 1380 nM in series [7]; 500 nM in [8]; 1350 nM in [9]; 250 nM in series [10]; 830 nM in [11]; 340 nM in series [12]. For the same compound, the IC50 in [14] came to 630 nM; in series [15], 340 nM; in series [16], 180 nM; in series [17] it was 790 nM. Further, the “tumor volume compared to the controls” value in [13] (2 mg/kg/day) and in [13] (10 mg/kg/day) was “significantly reduced” in each case. In addition, in [13] (2 and 10 mg/kg/day), the body weight fluctuations entry is “no more than 1 g”.

These data come from patent US7405214B2, “Nucleoside derivatives and therapeutic use thereof” (Rexahn Corporation, priority 2004, dated 2008).
